We go through 42 compounds from BindingDB's records for doi:10.1021/jm00381a005 (1985).

Each structure is given as a SMILES string.

A short description of the assay: Inhibitory activity against thromboxane B2 formation (TXA2 synthase) by incubating prostaglandin H2 (PGH-2) with horse platelet microsomes.
With `O=C(O)CCCC/C=C(\c1ccccc1)c1ccc[n+]([O-])c1` [7-(1-Oxy-pyridin-3-yl)-7-phenyl-hept-6-enoic acid], the IC50 was over 10000 nM.
To `O=C(O)CCCC/C=C(\c1cccnc1)c1ccccc1Br` [7-(2-Bromo-phenyl)-7-pyridin-3-yl-hept-6-enoic acid] belongs 130 nM; to `O=C(O)CCCC/C=C(/c1ccc(Br)cc1)c1cccnc1` [7-(4-Bromo-phenyl)-7-pyridin-3-yl-hept-6-enoic acid], 82 nM; to `C/C(=C/CCCCC(=O)O)c1cccnc1` [7-Pyridin-3-yl-oct-6-enoic acid], 71 nM.
In turn, `C=CCC(CCC/C=C(\c1ccccc1)c1cccnc1)C(=O)O` (configuration not stated) [2-Allyl-7-phenyl-7-pyridin-3-yl-hept-6-enoic acid] returned an IC50 of 50 nM. The IC50 values of the last two compounds are within 1.5-fold of each other.
`O=C(O)CCCC/C=C(\c1cccnc1)c1cccc([N+](=O)[O-])c1` [7-(3-Nitro-phenyl)-7-pyridin-3-yl-hept-6-enoic acid] yielded an IC50 of 73 nM. The IC50 values of the last two compounds are within 1.5-fold of each other.
Compound `O=C(O)CCCC/C=C(/CCCc1ccccc1)c1cccnc1` [10-Phenyl-7-pyridin-3-yl-dec-6-enoic acid] showed an IC50 of 65 nM.
As for `O=C(O)CCCC/C=C(\c1cccnc1)c1cccc(F)c1` [7-(3-Fluoro-phenyl)-7-pyridin-3-yl-hept-6-enoic acid], the figure is 55 nM; as for `O=C(O)CCC/C=C(/c1ccccc1)c1cccnc1` [6-Phenyl-6-pyridin-3-yl-hex-5-enoic acid], 280 nM.
The compound `Cc1ccsc1/C(=C/CCCCC(=O)O)c1cccnc1` [7-(3-Methyl-thiophen-2-yl)-7-pyridin-3-yl-hept-6-enoic acid] registered an IC50 of 29 nM.
As for `CCOC(=O)CCCC/C=C(\c1ccccc1)c1cccnc1` [7-Phenyl-7-pyridin-3-yl-hept-6-enoic acid ethyl ester], the figure is 600 nM; as for `CC(C)(CCC/C=C(\c1ccccc1)c1cccnc1)C(=O)O` [2,2-Dimethyl-7-phenyl-7-pyridin-3-yl-hept-6-enoic acid], 21 nM.
Take `O=C(O)CCCC/C=C(/c1cccnc1)c1cccs1` [(Z)-7-Pyridin-3-yl-7-thiophen-2-yl-hept-6-enoic acid]: the IC50 was found to be 54 nM.
On to `C=C(C)C(CCC/C=C(\c1ccccc1)c1cccnc1)C(=O)O` (configuration not stated) [2-Isopropenyl-7-phenyl-7-pyridin-3-yl-hept-6-enoic acid], for which the midpoint of inhibition, the IC50, lay at 28 nM. Compared with the last compound, the IC50 is about 1.9-fold lower.
The compound `O=C(O)C(CCC/C=C(\c1ccccc1)c1cccnc1)C1=CCCC1` (configuration not stated) [2-Cyclopent-1-enyl-7-phenyl-7-pyridin-3-yl-hept-6-enoic acid] had a 50% inhibitory concentration (IC50) of 60 nM.
`O=C(O)CCC/C=C(\c1ccccc1)c1cccnc1` [6-Phenyl-6-pyridin-3-yl-hex-5-enoic acid] displayed an IC50 of 30 nM.
To `O=C(O)CCCC/C=C(/c1cccnc1)c1ccsc1` [(Z)-7-Pyridin-3-yl-7-thiophen-3-yl-hept-6-enoic acid] belongs 62 nM; to `NC(=O)CCCC/C=C(\c1ccccc1)c1cccnc1` [7-Phenyl-7-pyridin-3-yl-hept-6-enoic acid amide], 400 nM.
Turning to `O=C(O)C(CCC/C=C(\c1cccnc1)c1cccs1)c1ccccc1` (configuration not stated) [2-Phenyl-7-pyridin-3-yl-7-thiophen-2-yl-hept-6-enoic acid], the IC50 was 32 nM.
As for `Cc1ccc(/C(=C/CCCCC(=O)O)c2cccnc2)cc1` [7-Pyridin-3-yl-7-p-tolyl-hept-6-enoic acid], the figure is 85 nM; as for `O=C(O)C(CCC/C=C(\c1ccccc1)c1cccnc1)C1(O)CCCC1` (configuration not stated) [2-(1-Hydroxy-cyclopentyl)-7-phenyl-7-pyridin-3-yl-hept-6-enoic acid], 65 nM.
As for `CC(C)(O)C(CCC/C=C(\c1ccccc1)c1cccnc1)C(=O)O` (configuration not stated) [2-(1-Hydroxy-1-methyl-ethyl)-7-phenyl-7-pyridin-3-yl-hept-6-enoic acid], the figure is 42 nM; as for `CC(C)(CCCC/C=C(\c1ccccc1)c1cccnc1)C(=O)O` [2,2-Dimethyl-8-phenyl-8-pyridin-3-yl-oct-7-enoic acid], 45 nM.
For the compound `CC(C)(CCCC/C=C(/c1ccccc1)c1cccnc1)C(=O)O` [2,2-Dimethyl-8-phenyl-8-pyridin-3-yl-oct-7-enoic acid], the IC50 turned out to be 38 nM.
As for `O=C(O)CCCCCC(c1ccccc1)c1cccnc1` (configuration not stated) [7-Phenyl-7-pyridin-3-yl-heptanoic acid], the figure is 2700 nM; as for `O=C(O)CCCC/C=C(/c1ccccc1)c1ccccn1` [7-Phenyl-7-pyridin-2-yl-hept-6-enoic acid], over 100000 nM.
As for `COC(=O)CCCC/C=C(\c1ccccc1)c1cccnc1` [7-Phenyl-7-pyridin-3-yl-hept-6-enoic acid methyl ester], the figure is 100 nM; as for `O=C(O)CCCC/C=C(\c1cccnc1)c1cccc(Br)c1` [7-(3-Bromo-phenyl)-7-pyridin-3-yl-hept-6-enoic acid], 180 nM.
In turn, `O=C(O)CCCCCCCCC/C=C(\c1ccccc1)c1cccnc1` [12-Phenyl-12-pyridin-3-yl-dodec-11-enoic acid] yielded an IC50 of 55 nM. This IC50 lies about 3.3-fold lower than the previous one.
As for `CC(C)CSC(CCC/C=C(\c1ccccc1)c1cccnc1)C(=O)O` (configuration not stated) [2-Isobutylsulfanyl-7-phenyl-7-pyridin-3-yl-hept-6-enoic acid], the IC50 came to 110 nM.
On to `C/C(=C\CCCCC(=O)O)c1cccnc1` [(Z)-7-Pyridin-3-yl-oct-6-enoic acid], for which half-maximal inhibition (IC50) was put at 210 nM.
As for `O=C(O)C(CCC/C=C(\c1ccccc1)c1cccnc1)Sc1ccccc1` (configuration not stated) [7-Phenyl-2-phenylsulfanyl-7-pyridin-3-yl-hept-6-enoic acid], the figure is 33 nM; as for `COCC(CCC/C=C(\c1ccccc1)c1cccnc1)C(=O)O` (configuration not stated) [2-Methoxymethyl-7-phenyl-7-pyridin-3-yl-hept-6-enoic acid], 41 nM; as for `COc1ccc(/C(=C/CCCCC(=O)O)c2cccnc2)cc1` [7-(4-Methoxy-phenyl)-7-pyridin-3-yl-hept-6-enoic acid], 80 nM.
As for `CSC(CCC/C=C(\c1ccccc1)c1cccnc1)C(=O)O` (configuration not stated) [2-Methylsulfanyl-7-phenyl-7-pyridin-3-yl-hept-6-enoic acid], the figure is 30 nM.
To `O=C(O)CCCCCCCCC/C=C(/c1ccccc1)c1cccnc1` [12-Phenyl-12-pyridin-3-yl-dodec-11-enoic acid] belongs 520 nM; to `O=C(O)C(CCC/C=C(/c1cccnc1)c1cccs1)c1ccccc1` (configuration not stated) [2-Phenyl-7-pyridin-3-yl-7-thiophen-2-yl-hept-6-enoic acid], 50 nM; to `O=C(O)CCCC/C=C(\c1cccnc1)c1ccsc1` [7-Pyridin-3-yl-7-thiophen-3-yl-hept-6-enoic acid], 31 nM.
In turn, `O=C(O)CCCC/C=C(/c1ccc(F)cc1)c1cccnc1` [7-(4-Fluoro-phenyl)-7-pyridin-3-yl-hept-6-enoic acid] showed an IC50 of 83 nM.
As for `O=C(O)CCCC/C=C\c1cccnc1` [7-Pyridin-3-yl-hept-6-enoic acid], the figure is 250 nM; as for `CC(C)(CCC/C=C(/c1ccccc1)c1cccnc1)C(=O)O` [2,2-Dimethyl-7-phenyl-7-pyridin-3-yl-hept-6-enoic acid], 30 nM.
In the case of `O=C(O)CCCC/C=C(\c1cccnc1)c1cccs1` [7-Pyridin-3-yl-7-thiophen-2-yl-hept-6-enoic acid], the IC50 was determined as 20 nM.
